Values quoted from earlier work as cited in patent US20040132815A1, “Preventive/remedial agent for inflammatory disease in oral-cavity mucosa and the like” (priority 2001, published 2004).

Settings: compared with the disodium salt

hygroscopicity: less hygroscopic | stability: more stable
SMILES: CC(C)c1cc2c(cc1S(=O)(=O)[O-])[C@@]1(C)CCC[C@@](C)(C(=O)O)[C@@H]1CC2.[Na+] [Sulfodehydroabietic acid monosodium salt]
